From US20070104644A1, “Inhibitor imaging agents” (priority 2003, published 2007)

How the values were obtained:
[1] = system: Lewis lung carcinoma (LLC) tumour; assay: Biodistribution in LLC tumour model in vivo; design: species or system C57BL/6 mice
Experimental: 1×10^6 Lewis lung carcinoma (LLC) cells are injected subcutaneously into right inner thigh of C57BL/6 mice. Tumours were allowed to grow for 15 days prior to biodistribution being carried out.
Biodistribution studies were performed in the LLC tumour model.
Biodistribution was performed in the LLC tumour model of Example 23 with Compounds 46B and 48B.

[2] = system: ApoE −/− mice, carotid artery; assay: Biodistribution in ApoE ligation model of atherosclerosis (ligated and sham); assay type: in vivo
Excerpt: ApoE −/− mice are transgenic knock-out mice, which lack the ApoE gene, and are therefore unable to regulate their plasma cholesterol levels. As a consequence ApoE mice develop atherosclerotic lesions, a process which is accelerated with feeding of high fat diet. Further acceleration of lesion development can be achieved by ligating the carotid artery, resulting in advanced lesion formation within 4 weeks of surgery and high fat diet feeding.
Two controls have been used for these experiments: (1) ApoE sham animals in which the mice undergo the same surgical intervention but the sture is only passed beneath the carotid and then removed and, (2) C57BL/6 ligtaed animals which undergo the same surgical ligation and high fat feeding as the ApoE ligated mice. Literature reports have stated that these animals do have some level of tissue remodelling, but with lower active MMP levels [Ivan et al, Circulation, 105, 2686-2691 (2002)].

[3] = ApoE Ligated, 5 min post injection
[4] = ApoE Ligated, 60 min post injection
[5] = ApoE Sham, 60 min post injection

SMILES	% ID Urinary (urinary excretion), mean ([1]; 5 min post injection)	% ID/g Tumour, mean ([1]; 5 min post injection)	Tumour/Blood, mean ([1]; 5 min post injection)	Tumour/Heart, mean ([1]; 5 min post injection)	Tumour/Lung, mean ([1]; 5 min post injection)	Tumour/Muscle, mean ([1]; 5 min post injection)	% ID Urinary (urinary excretion), mean ([1]; 30 min post injection)	% ID/g Tumour, mean ([1]; 30 min post injection)	Tumour/Blood, mean ([1]; 30 min post injection)	Tumour/Heart, mean ([1]; 30 min post injection)	Tumour/Lung, mean ([1]; 30 min post injection)	Tumour/Muscle, mean ([1]; 30 min post injection)	% ID Urinary (urinary excretion), mean ([1]; 60 min post injection)	% ID/g Tumour, mean ([1]; 60 min post injection)	Tumour/Blood, mean ([1]; 60 min post injection)	Tumour/Heart, mean ([1]; 60 min post injection)	Tumour/Lung, mean ([1]; 60 min post injection)	Tumour/Muscle, mean ([1]; 60 min post injection)	% ID Urinary (urinary excretion), mean ([1]; 120 min post injection)	% ID/g Tumour, mean ([1]; 120 min post injection)	also measured
NC(=O)[C@H](Cc1ccc(O)c([123I])c1)NC(=O)COCC(=O)NCCOCCOCCOCCNC(=O)CCN(C1(C(=O)NO)CCCC1)S(=O)(=O)c1ccc(Oc2ccc(F)cc2)cc1 [Compound 20A]																					Decrease in HBS (hepatobiliary) excretion compared to Compound 24A [1]: 10%; Increase in urinary excretion compared to Compound 24A [1]: 10%; Tumour retention compared to Compound 24A [1]: slightly increased; Uptake into the tumour compared to Compound 24A [1]: slightly lower
NC(=O)[C@H](Cc1ccc(O)c([123I])c1)NC(=O)[C@H](CCC(=O)O)NC(=O)[C@H](CCC(=O)O)NC(=O)[C@H](CCC(=O)O)NC(=O)[C@H](CCC(=O)O)NC(=O)[C@H](CCC(=O)O)NC(=O)CCN(C1(C(=O)NO)CCCC1)S(=O)(=O)c1ccc(Oc2ccc(F)cc2)cc1 [Compound 21A]	5.62 % ID	1.64 % ID/g	0.13	0.30	0.28	0.92	26.73 % ID	2.20 % ID/g	0.33	0.83	0.65	1.72	39.99 % ID	1.97 % ID/g	0.40	1.14	0.66	2.30	52.08 % ID	1.60 % ID/g	Tumour/Blood, mean ([1]; 120 min post injection): 0.37; Tumour/Heart, mean ([1]; 120 min post injection): 0.91; Tumour/Lung, mean ([1]; 120 min post injection): 0.61; Tumour/Muscle, mean ([1]; 120 min post injection): 2.44
NC(=O)[C@H](Cc1ccc(O)c([123I])c1)NC(=O)CCOCCOCCOCCOCCOCCOCCOCCOCCOCCOCCOCCNC(=O)CCOCCOCCOCCOCCOCCOCCOCCOCCOCCOCCOCCNC(=O)CCN(C1(C(=O)NO)CCCC1)S(=O)(=O)c1ccc(Oc2ccc(F)cc2)cc1 [Compound 32A]	9.82 % ID	2.58 % ID/g	0.16	0.48	0.30	1.66	35.20 % ID	2.67 % ID/g	0.26	0.75	0.43	2.80	54.06 % ID	2.03 % ID/g	0.43	1.31	0.69	4.88	64.10 % ID	1.34 % ID/g	Blood clearance / retention [1]: high initial blood retention, which cleared with time; GI excretion [1]: low GI excretion; Tumour uptake and retention [1]: Good tumour uptake and retention were seen up to 1 hour post injection; Urinary excretion [1]: High urinary excretion; Tumour/Blood, mean ([1]; 120 min post injection): 0.53; Tumour/Heart, mean ([1]; 120 min post injection): 1.54; Tumour/Lung, mean ([1]; 120 min post injection): 0.55; Tumour/Muscle, mean ([1]; 120 min post injection): 3.92; % ID/G Carotid, mean [2, 3]: 10.32 % ID/G; Carotid/Blood, mean [2, 3]: 0.46; Carotid/Heart, mean [2, 3]: 1.39; Carotid/Lung, mean [2, 3]: 1.01; % ID/G Carotid, mean [2, 4]: 10.85 % ID/G; Carotid/Blood, mean [2, 4]: 1.21; Carotid/Heart, mean [2, 4]: 3.94; Carotid/Lung, mean [2, 4]: 1.45; % ID/G Carotid, mean [2, 5]: 2.91 % ID/G; Carotid/Blood, mean [2, 5]: 0.69; Carotid/Heart, mean [2, 5]: 1.28; Carotid/Lung, mean [2, 5]: 0.70
NC(=O)[C@H](Cc1ccc(O)c([123I])c1)NC(=O)COCC(=O)NCCOCCOCCOCCNC(=O)[C@H](CCC(=O)O)NC(=O)[C@H](CCC(=O)O)NC(=O)[C@H](CCC(=O)O)NC(=O)[C@H](CCC(=O)O)NC(=O)[C@H](CCC(=O)O)NC(=O)CCN(C1(C(=O)NO)CCCC1)S(=O)(=O)c1ccc(Oc2ccc(F)cc2)cc1 [Compound 38A]	6.37 % ID	2.08 % ID/g	0.13	0.29	0.33	1.22	40.17 % ID	2.14 % ID/g	0.30	0.90	0.73	2.19	68.53 % ID	1.06 % ID/g	0.45	1.25	0.83	2.27	78.75 % ID	0.42 % ID/g	Tumour/Blood, mean ([1]; 120 min post injection): 0.52; Tumour/Heart, mean ([1]; 120 min post injection): 1.14; Tumour/Lung, mean ([1]; 120 min post injection): 0.64; Tumour/Muscle, mean ([1]; 120 min post injection): 1.82
NCCCC[C@H](NC(=O)CCN(C1(C(=O)NO)CCCC1)S(=O)(=O)c1ccc(Oc2ccc(F)cc2)cc1)C(=O)N[C@@H](CCCCN)C(=O)N[C@@H](CCCCN)C(=O)N[C@@H](CCCCN)C(=O)N[C@@H](CCCCN)C(=O)NCCOCCOCCOCCNC(=O)COCC(=O)N[C@@H](Cc1ccc(O)c([123I])c1)C(N)=O [Compound 42A]	6.89 % ID	2.26 % ID/g	0.26	0.47	0.26	1.46	16.98 % ID	2.67 % ID/g	0.54	1.24	0.57	3.22	31.69 % ID	2.35 % ID/g	0.66	1.49	0.74	3.52	48.07 % ID	1.29 % ID/g	Tumour/Blood, mean ([1]; 120 min post injection): 0.56; Tumour/Heart, mean ([1]; 120 min post injection): 1.49; Tumour/Lung, mean ([1]; 120 min post injection): 0.60; Tumour/Muscle, mean ([1]; 120 min post injection): 2.51
NC(=O)[C@H](Cc1ccc(O)c([123I])c1)NC(=O)CCOCCOCCOCCOCCOCCOCCOCCOCCOCCOCCOCCNC(=O)CCN(C1(C(=O)NO)CCCC1)S(=O)(=O)c1ccc(Oc2ccc(F)cc2)cc1 [Compound 44A]	3.94 % ID	1.14 % ID/g	0.41	0.86	0.49	1.91	5.85 % ID	0.5 % ID/g	0.38	0.870	0.54	1.57	6.36 % ID	0.66 % ID/g	0.42	0.940	0.69	2.3	9.42 % ID	0.53 % ID/g	Tumour/Blood, mean ([1]; 120 min post injection): 0.43; Tumour/Heart, mean ([1]; 120 min post injection): 1.060; Tumour/Lung, mean ([1]; 120 min post injection): 0.72; Tumour/Muscle, mean ([1]; 120 min post injection): 2.8
NC(=O)[C@H](CCCCNC(=O)CON=Cc1ccc([18F])cc1)NC(=O)CCN(C1(C(=O)NO)CCCC1)S(=O)(=O)c1ccc(Oc2ccc(F)cc2)cc1 [Compound 46B]	6.60 % ID	0.42 % ID/g	0.18	0.37	0.21	1.16	12.00 % ID	0.53 % ID/g	0.47	1.15	0.55	2.06	15.02 % ID	0.32 % ID/g	0.73	1.54	0.60	2.02	19.68 % ID	0.31 % ID/g	Tumour/Blood, mean ([1]; 120 min post injection): 0.73; Tumour/Heart, mean ([1]; 120 min post injection): 1.33; Tumour/Lung, mean ([1]; 120 min post injection): 0.80; Tumour/Muscle, mean ([1]; 120 min post injection): 1.81; % ID/G Carotid, mean [2, 3]: 0.88 % ID/G; Carotid/Blood, mean [2, 3]: 0.42; Carotid/Heart, mean [2, 3]: 0.49; Carotid/Lung, mean [2, 3]: 0.35; % ID/G Carotid, mean [2, 4]: 0.44 % ID/G; Carotid/Blood, mean [2, 4]: 0.61; Carotid/Heart, mean [2, 4]: 1.11; Carotid/Lung, mean [2, 4]: 0.53
